We go through 13 molecules from ChEMBL document CHEMBL1687875, “Flavonoids from eight tropical plant species that inhibit the multidrug resistance transporter ABCG2” (J Nat Prod, 2011).

This assay deals with T1, Broad substrate specificity ATP-binding cassette transporter ABCG2 (Homo sapiens, UniProt Q9UNQ0).
T1 sequence (Q9UNQ0 whole entry): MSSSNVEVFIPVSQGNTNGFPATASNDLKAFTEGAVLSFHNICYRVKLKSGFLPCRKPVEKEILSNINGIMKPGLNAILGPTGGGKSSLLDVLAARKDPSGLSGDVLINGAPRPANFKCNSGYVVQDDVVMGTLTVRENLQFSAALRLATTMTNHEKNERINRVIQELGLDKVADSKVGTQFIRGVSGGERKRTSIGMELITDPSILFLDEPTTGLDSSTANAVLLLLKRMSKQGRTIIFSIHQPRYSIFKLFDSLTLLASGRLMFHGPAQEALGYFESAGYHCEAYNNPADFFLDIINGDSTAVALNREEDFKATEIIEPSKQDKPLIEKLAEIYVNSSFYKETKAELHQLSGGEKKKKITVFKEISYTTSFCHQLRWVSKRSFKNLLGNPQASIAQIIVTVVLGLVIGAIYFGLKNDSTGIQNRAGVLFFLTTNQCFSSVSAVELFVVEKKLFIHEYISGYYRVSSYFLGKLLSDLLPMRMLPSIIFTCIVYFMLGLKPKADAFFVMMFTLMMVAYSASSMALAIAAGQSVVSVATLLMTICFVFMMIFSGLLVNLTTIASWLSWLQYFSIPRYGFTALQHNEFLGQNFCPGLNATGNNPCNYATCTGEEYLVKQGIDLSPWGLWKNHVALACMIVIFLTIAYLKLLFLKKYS
Description: Inhibition of ABCG2 expressed in human NCI-H460 cells assessed as increase in PhA accumulation after 2 to 20 hrs relative to fumitremorgin C.
The IC50 is the concentration that gives 50% inhibition. As to `O=c1cc(-c2ccc(O)c(O)c2)oc2cc(O)cc(O)c12` [LUTEOLIN], the IC50 was 8.9 µM. The result for `CC(C)=CCC/C(C)=C/Cc1c(O)cc(O)c2c1O[C@H](c1ccc(O)cc1)CC2=O` [SOPHORAFLAVANONE A] reads 12.3 µM; that for `COc1cc(O)c2c(=O)c(OC)c(-c3ccc(O)c(OC)c3)oc2c1` [PACHYPODOL], 17.2 µM; that for `COc1ccc([C@@H]2CC(=O)c3c(O)cc(O)c(CC=C(C)C)c3O2)cc1O`, 6.6 µM.

For the molecule `CC(C)=CCC/C(C)=C/Cc1c(O)cc2oc(-c3ccc(O)cc3)c(O)c(=O)c2c1O` [MACARANGIN], the IC50 was 5.7 µM. The result for `COc1cc(O)c2c(=O)c(OC)c(-c3ccc(OC)c(O)c3)oc2c1` [AYANIN] reads 5.7 µM; that for `CC(C)=CCC/C(C)=C/Cc1c(O)cc(O)c2c1O[C@H](c1cc(O)cc(O)c1)CC2=O`, 15.5 µM. The same measure for `CC(C)=CCc1c(O)cc(O)c2c1O[C@H](c1ccc(O)cc1)CC2=O`: 3.1 µM; for `COc1cc(O)c(CC=C(C)C)c(-c2oc3cc(O)cc(O)c3c(=O)c2OC)c1`: 8.4 µM. The result for `C/C(=C/Cc1c(-c2cc(O)c(O)cc2O)oc2c3c(cc(O)c2c1=O)OC(C)(C)C=C3)CO` reads 6.5 µM.

Take `COc1ccc2c3c([nH]c2c1)[C@H](C=C(C)C)N1C(=O)[C@@H]2CCCN2C(=O)[C@@H]1C3` [FUMITREMORGIN]: the IC50 worked out at 0.8 µM. The same measure for `CC(C)=CCc1c(O)c(CC=C(C)C)c2c(c1O)C(=O)C[C@@H](c1cc(O)cc(O)c1)O2`: 4.1 µM; for `COc1ccc([C@@H]2CC(=O)c3c(O)cc(O)c(CC=C(C)C)c3O2)cc1`: 22.6 µM.
